Test results reported in article PMC4598324, “Crystal structures of Bbp from Staphylococcus aureus reveal the ligand binding mechanism with Fibrinogen α” (Protein & Cell, 2015).
Residue numbers refer to the chain shown, from its start. Where no end group is shown, it is not given here.

Tests used:
[1] = biological target: Bone sialoprotein-binding protein (Bbp) residues 273-598 (N2 and N3 domains) (S. aureus) (UniProt Q14U76); experiment: ITC; 500 μmol/L peptide in the syringe titrated into 50 μmol/L Bbp^273−598 in the cell; 25°C; 200 mmol/L NaCl, 20 mmol/L HEPES pH 7.5; Microcal iTC200
[2] = biological target: T1, Bbp^273−598 (Staphylococcus aureus, UniProt Q14U76); experiment: Isothermal titration calorimetry (ITC), Fg α^561−575 titrated into Bbp^273−598; type: binding; conditions: 25°C, Microcal iTC200, cell 50 μmol/L Bbp^273−598, syringe 500 μmol/L peptide, 200 mmol/L NaCl, 20 mmol/L HEPES pH 7.5, first peak not used for analysis
T1 construct: covering residues Asn^273–Pro^598 of Bbp from S. aureus; GST (cleaved; GPLGS remains at the N-terminus) (N, cleaved yes); made in house; host or cells: Escherichia coli BL21
T1 sequence (Q14U76 273-598): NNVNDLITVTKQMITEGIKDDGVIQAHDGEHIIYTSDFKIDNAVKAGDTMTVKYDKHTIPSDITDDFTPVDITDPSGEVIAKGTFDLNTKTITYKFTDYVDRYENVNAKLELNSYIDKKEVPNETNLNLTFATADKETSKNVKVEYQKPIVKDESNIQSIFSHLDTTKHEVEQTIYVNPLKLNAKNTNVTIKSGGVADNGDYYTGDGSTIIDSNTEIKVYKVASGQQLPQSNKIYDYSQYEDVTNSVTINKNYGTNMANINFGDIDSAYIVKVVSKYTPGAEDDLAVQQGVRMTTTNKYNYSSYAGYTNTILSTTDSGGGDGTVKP
From the text: (§1) The fragment of the Bbp gene (corresponding to 273–598 aa) was amplified using S. aureus ATCC 25923 genomic DNA by PCR. The gene fragments of mutated proteins Bbp^T582A and Bbp^L584A followed the same protocol. After digestion with BamHI and XhoI (NEB), the amplified fragments were cloned into the prokaryotic expression vector pGEX-6p-1 (GE Healthcare Life Sciences) to produce the GST-Bbp fusion protein and were confirmed by DNA sequencing. The recombinant protein was expressed in Escherichia coli strain BL21 with a high yield.
The recombinant protein was firstly purified by GST-affinity column and digested with PreScission protease overnight. The eluant was collected and concentrated for further purification using gel filtration chromatography (Superdex-200 column, GE Healthcare) in buffer containing 20 mmol/L HEPES pH 7.5, 200 mmol/L NaCl, 2 mmol/L DTT on the FPLC system (GE Healthcare Life Sciences). The proteins in every step of purification were analyzed by SDS-PAGE.
(§2) The peptide corresponding to the fibrinogen α^561−575 was synthesized as previously described (Vazquez et al., [2011]).
ITC experiments were carried out at 25°C using a Microcal iTC200 instrument (GE Healthcare). […] The data were fitted and analyzed using the Origin 7 software package (Microcal).

[3] = biological target: T2, Bbp^L584A (Staphylococcus aureus, UniProt Q14U76, L584A); experiment: Surface plasmon resonance (SPR), immobilized mutant L584A; conditions: BIAcore T200, L584A mutant immobilized on CM5 chip (3375RU), peptide 62.5 to 0.976 μmol/L in 200 mmol/L NaCl, 20 mmol/L HEPES (pH 7.5), 30 μL/min, binding 60 s, dissociation 120 s
T2 construct: The fragment of the Bbp gene (corresponding to 273–598 aa) was amplified; GST (pGEX-6p-1) (N); made in house; host or cells: Escherichia coli BL21
T2 sequence (Q14U76 273-598 L584A): T1 sequence (Q14U76 273-598) with L312A
From the text: (§3) Figure 5 SPR analyses of the interactions between Bbp ^273−598 WT and mutants (T582A and L584A) and the Fg α ^561−575 (A–C), respectively. The proteins were immobilized on a BIA-core sensor chip.
as §1, §2
(§4) The interaction affinities between Fg α^561−575 and Bbp^273−598 protein were conducted by surface plasmon resonance (SPR) using BIAcore T200 instrument (GE Healthcare). The wild type Bbp^273−598 protein and two mutants were immobilized, respectively, on a CM5 sensor chip in 10 mmol/L sodium acetate, pH 4.5. The immobilization level was 3375RU. The synthetic peptide in 200 mmol/L NaCl and 20 mmol/L HEPES (pH 7.5) was injected on the protein-coated surface at various concentrations at 30 μL/min. The binding and dissociation was 60 s and 120 s, respectively.

[4] = biological target: T3, Bbp^T582A (Staphylococcus aureus, UniProt Q14U76, T582A); experiment: Surface plasmon resonance (SPR), immobilized mutant T582A; conditions: BIAcore T200, T582A mutant immobilized on CM5 chip (3375RU), peptide 62.5 to 0.976 μmol/L in 200 mmol/L NaCl, 20 mmol/L HEPES (pH 7.5), 30 μL/min, binding 60 s, dissociation 120 s
T3 construct: The fragment of the Bbp gene (corresponding to 273–598 aa) was amplified; GST (pGEX-6p-1) (N); made in house; host or cells: Escherichia coli BL21
T3 sequence (Q14U76 273-598 T582A): T1 sequence (Q14U76 273-598) with T310A
From the text: as §3, §1, §2, §4

[5] = biological target: T4, Bone sialoprotein-binding protein (Bbp) residues 273-598 (N2 and N3 domains) (S. aureus, UniProt Q14U76 273-598); experiment: SPR
T4 chain: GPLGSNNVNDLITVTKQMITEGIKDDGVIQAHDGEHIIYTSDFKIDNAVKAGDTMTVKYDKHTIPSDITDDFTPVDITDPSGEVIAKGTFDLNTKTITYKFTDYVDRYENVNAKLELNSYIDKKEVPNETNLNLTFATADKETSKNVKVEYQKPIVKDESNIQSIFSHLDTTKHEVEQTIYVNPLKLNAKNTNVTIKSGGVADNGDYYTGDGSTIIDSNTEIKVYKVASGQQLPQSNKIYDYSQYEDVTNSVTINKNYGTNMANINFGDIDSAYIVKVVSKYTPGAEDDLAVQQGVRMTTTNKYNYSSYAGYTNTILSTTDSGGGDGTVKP

Fibrinogen α chain peptide, residues 561-575
Kd [1]: 290 nM

SKQFTSSTSYNRGDS [Fg α^561−575]
Kd [2]: 290 nM | Kd [3]: 456 nM | Kd [4]: 537 nM

SKQFTSSTSYNRGDS [Fibrinogen α chain peptide, residues 561-575]
Kd [5]: 1620 nM
